Values of other authors in patent US12622943B2, “Composition for relieving woman menopausal symptom comprising a mixed extract of hop and citrus peel and method for treating or alleviating menopausal symptom using the same” (LG HOUSEHOLD & HEALTH CARE LTD., priority 2022, dated 2026).

Tested on: uterine weight
Settings: administered to animals at high doses

uterine weight: increased
Compound: CC(C)=CCc1c(O)cc(O)c2c1O[C@H](c1ccc(O)cc1)CC2=O [8-Prenylnaringenin]
